In PubChem BioAssay (NCI):
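1) Cells in 96-well plates. 2) Compound, 48 h, 5 concentrations. 3) Linear interpolation between surrounding doses. 4) Unreached endpoint = highest concentration. At the TGI there is no net growth.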

Key:
Assay in all cases: DTP human tumour cell line panel, 48 h
CAKI-1 renal = system: CAKI-1 renal
SF-268 CNS = system: SF-268 CNS
OVCAR-5 ovarian = system: OVCAR-5 ovarian
KM12 colon = system: KM12 colon
M14 melanoma = system: M14 melanoma
SN12C renal = system: SN12C renal
HOP-62 NSCLC = system: HOP-62 NSCLC
MCF7 breast = system: MCF7 breast
NCI-H23 lung = system: NCI-H23 lung
EKVX NSCLC = system: EKVX NSCLC
U251 CNS = system: U251 CNS
MDA-MB-231 breast = system: MDA-MB-231 breast
MDA-N = system: MDA-N
HCT-15 colon = system: HCT-15 colon
BT-549 breast = system: BT-549 breast
UACC-62 melanoma = system: UACC-62 melanoma
IGROV1 ovarian = system: IGROV1 ovarian
HL-60(TB) leukemia = system: HL-60(TB) leukemia
HCC-2998 colon = system: HCC-2998 colon
T-47D breast = system: T-47D breast
UO-31 renal = system: UO-31 renal
RXF 393 renal = system: RXF 393 renal
MALME-3M melanoma = system: MALME-3M melanoma
LOX IMVI melanoma = system: LOX IMVI melanoma
SNB-75 CNS = system: SNB-75 CNS
SR leukemia = system: SR leukemia
NCI-H522 lung = system: NCI-H522 lung
NCI-H226 lung = system: NCI-H226 lung
HS 578T breast = system: HS 578T breast
PC-3 prostate = system: PC-3 prostate
K-562 leukemia = system: K-562 leukemia
UACC-257 melanoma = system: UACC-257 melanoma
NCI-H460 lung = system: NCI-H460 lung
HT29 colon = system: HT29 colon
HOP-92 NSCLC = system: HOP-92 NSCLC
SNB-19 CNS = system: SNB-19 CNS
SF-295 CNS = system: SF-295 CNS
ACHN renal = system: ACHN renal
OVCAR-8 ovarian = system: OVCAR-8 ovarian
786-0 renal = system: 786-0 renal
DU-145 prostate = system: DU-145 prostate
OVCAR-4 ovarian = system: OVCAR-4 ovarian
OVCAR-3 ovarian = system: OVCAR-3 ovarian
COLO 205 colon = system: COLO 205 colon
A549 NSCLC = system: A549 NSCLC
SK-MEL-28 melanoma = system: SK-MEL-28 melanoma
HCT-116 colon = system: HCT-116 colon
NCI/ADR-RES ovarian = system: NCI/ADR-RES ovarian
CCRF-CEM leukemia = system: CCRF-CEM leukemia
SW-620 colon = system: SW-620 colon
SF-539 CNS = system: SF-539 CNS
A498 renal = system: A498 renal
SK-OV-3 ovarian = system: SK-OV-3 ovarian
TK-10 renal = system: TK-10 renal
MOLT-4 leukemia = system: MOLT-4 leukemia
RPMI-8226 leukemia = system: RPMI-8226 leukemia
SK-MEL-5 melanoma = system: SK-MEL-5 melanoma
SK-MEL-2 melanoma = system: SK-MEL-2 melanoma
MDA-MB-435 = system: MDA-MB-435

## C1CSCCCSCCCSCCCSCCCSC1
CAKI-1 renal
  TGI: 48.8 µM
SF-268 CNS
  TGI: > 100 µM
OVCAR-5 ovarian
  TGI: > 100 µM
KM12 colon
  TGI: > 100 µM
M14 melanoma
  TGI: > 100 µM
SN12C renal
  TGI: > 100 µM
HOP-62 NSCLC
  TGI: > 100 µM
MCF7 breast
  TGI: > 76.7 µM
NCI-H23 lung
  TGI: > 100 µM
EKVX NSCLC
  TGI: > 100 µM
U251 CNS
  TGI: > 100 µM
MDA-MB-231 breast
  TGI: > 88.4 µM
MDA-N
  TGI: > 100 µM
HCT-15 colon
  TGI: > 100 µM
BT-549 breast
  TGI: > 88.5 µM
UACC-62 melanoma
  TGI: > 100 µM
IGROV1 ovarian
  TGI: > 87.1 µM
HL-60(TB) leukemia
  TGI: 36.5 µM
HCC-2998 colon
  TGI: > 100 µM
T-47D breast
  TGI: > 88.6 µM
UO-31 renal
  TGI: > 100 µM
RXF 393 renal
  TGI: > 100 µM
MALME-3M melanoma
  TGI: > 100 µM
LOX IMVI melanoma
  TGI: 61.3 µM
SNB-75 CNS
  TGI: > 93.2 µM
SR leukemia
  TGI: 29.5 µM
NCI-H522 lung
  TGI: 81.2 µM
NCI-H226 lung
  TGI: > 77.2 µM
HS 578T breast
  TGI: > 100 µM
PC-3 prostate
  TGI: > 90.2 µM
K-562 leukemia
  TGI: > 80 µM
UACC-257 melanoma
  TGI: 97.2 µM
NCI-H460 lung
  TGI: > 51.4 µM
HT29 colon
  TGI: > 63.2 µM
HOP-92 NSCLC
  TGI: > 93.4 µM
SNB-19 CNS
  TGI: > 100 µM
SF-295 CNS
  TGI: > 100 µM
ACHN renal
  TGI: > 100 µM
OVCAR-8 ovarian
  TGI: > 100 µM
786-0 renal
  TGI: > 100 µM
DU-145 prostate
  TGI: > 100 µM
OVCAR-4 ovarian
  TGI: > 100 µM
OVCAR-3 ovarian
  TGI: > 100 µM
COLO 205 colon
  TGI: 34.5 µM
A549 NSCLC
  TGI: > 100 µM
SK-MEL-28 melanoma
  TGI: > 100 µM
HCT-116 colon
  TGI: > 100 µM
NCI/ADR-RES ovarian
  TGI: > 100 µM
CCRF-CEM leukemia
  TGI: 32.4 µM
SW-620 colon
  TGI: > 100 µM
SF-539 CNS
  TGI: > 100 µM
A498 renal
  TGI: > 78.1 µM
SK-OV-3 ovarian
  TGI: > 100 µM
TK-10 renal
  TGI: > 100 µM
MOLT-4 leukemia
  TGI: 38.1 µM
RPMI-8226 leukemia
  TGI: 36.9 µM
SK-MEL-5 melanoma
  TGI: 28.3 µM
SK-MEL-2 melanoma
  TGI: > 95.4 µM
MDA-MB-435
  TGI: > 100 µM

## COc1ccc(SCc2cc(OC)c(OC)c(OC)c2)cc1OC
CAKI-1 renal
  TGI: > 100 µM
SF-268 CNS
  TGI: > 100 µM
OVCAR-5 ovarian
  TGI: > 100 µM
KM12 colon
  TGI: > 100 µM
M14 melanoma
  TGI: > 100 µM
SN12C renal
  TGI: > 100 µM
HOP-62 NSCLC
  TGI: > 100 µM
MCF7 breast
  TGI: > 100 µM
NCI-H23 lung
  TGI: > 100 µM
EKVX NSCLC
  TGI: > 100 µM
U251 CNS
  TGI: > 100 µM
MDA-MB-231 breast
  TGI: > 100 µM
MDA-N
  TGI: > 100 µM
HCT-15 colon
  TGI: > 100 µM
BT-549 breast
  TGI: > 100 µM
UACC-62 melanoma
  TGI: > 100 µM
IGROV1 ovarian
  TGI: > 100 µM
HL-60(TB) leukemia
  TGI: > 100 µM
HCC-2998 colon
  TGI: > 100 µM
T-47D breast
  TGI: > 31.6 µM
UO-31 renal
  TGI: > 100 µM
RXF 393 renal
  TGI: > 100 µM
MALME-3M melanoma
  TGI: > 100 µM
LOX IMVI melanoma
  TGI: > 100 µM
SNB-75 CNS
  TGI: > 70.5 µM
SR leukemia
  TGI: > 100 µM
NCI-H522 lung
  TGI: > 100 µM
NCI-H226 lung
  TGI: > 100 µM
HS 578T breast
  TGI: > 100 µM
PC-3 prostate
  TGI: > 100 µM
K-562 leukemia
  TGI: > 100 µM
UACC-257 melanoma
  TGI: > 100 µM
NCI-H460 lung
  TGI: > 100 µM
HT29 colon
  TGI: > 100 µM
HOP-92 NSCLC
  TGI: 83.3 µM
SNB-19 CNS
  TGI: > 100 µM
SF-295 CNS
  TGI: > 100 µM
ACHN renal
  TGI: > 100 µM
OVCAR-8 ovarian
  TGI: > 100 µM
786-0 renal
  TGI: > 100 µM
DU-145 prostate
  TGI: > 100 µM
OVCAR-4 ovarian
  TGI: > 100 µM
OVCAR-3 ovarian
  TGI: > 100 µM
COLO 205 colon
  TGI: > 100 µM
A549 NSCLC
  TGI: > 100 µM
SK-MEL-28 melanoma
  TGI: > 100 µM
HCT-116 colon
  TGI: > 100 µM
NCI/ADR-RES ovarian
  TGI: > 100 µM
CCRF-CEM leukemia
  TGI: > 100 µM
SW-620 colon
  TGI: > 100 µM
SF-539 CNS
  TGI: > 100 µM
A498 renal
  TGI: > 86.4 µM
SK-OV-3 ovarian
  TGI: > 90.1 µM
TK-10 renal
  TGI: > 100 µM
MOLT-4 leukemia
  TGI: > 100 µM
RPMI-8226 leukemia
  TGI: > 100 µM
SK-MEL-5 melanoma
  TGI: 34.7 µM
SK-MEL-2 melanoma
  TGI: > 69.1 µM
MDA-MB-435
  TGI: 63.1 µM
